Values quoted from earlier work as cited in patent publication US20150111372A1 (priority 2013, published 2015).
Where two headings read alike, the source gives them in different places.

Columns and labels:
livers of chickens = conditions: in vivo

Structure (SMILES)	Solubility, Water (pH 2)	Solubility, Water (pH 5)	levels of arsenic in the livers of chickens (livers of chickens)
O=C(O)CNCP(=O)(O)O [N-(phosphonomethyl)glycine), N-(phosphonomethyl)glycine]	pH 2: 10 g/L	pH 5-9: 1 kg/L	
O=[N+]([O-])c1cc([As](=O)(O)O)ccc1O [Roxarsone, 4-Hydroxy-3-nitrobenzenearsonic acid]			elevated (but 'very low') levels
